Experimental data published in US7875624B2, “Modulating and measuring cellular adhesion” (Novartis Vaccines and Diagnostics, Inc., priority 2004, dated 2011).
Entries after “also recorded” stand apart in the source; their conditions may differ.

Experiments:
[1] = test system: 4T1 breast tumor cells; assay: 4T1 spontaneously metastatic mouse breast tumor model: subcutaneous tumor growth, liver and lung metastases; type: in vivo
[2] = test system: MMP-9; assay: Zymography for MMP-9 activity in KM12L4a human colon xenografts; type: in vivo, mouse; details: 100 mg/kg for 7 days; KM12L4a tumors in Nu/nu mice; listed as 4-amino-5-fluoro-3-[6-(4-methylpiperazin-1-yl)-1H-benzimidazol-2-yl]quinolin-2(1)
Method: Female Nu/nu mice (6-8 weeks old, 18-22 grams) were obtained from Charles River Laboratories (Wilmington, Mass.). Tumor cells (2×10^6 KM12L4a) were implanted subcutaneous into the flank of mice and allowed to grow to the desired size before treatment was initiated. […] The tumors were resected and flash frozen in liquid nitrogen.
After electrophoresis, gels were washed twice for 15 minutes in 2.5% Triton X-100, incubated overnight at 37° C. in 50 mM Tris-HCl and 10 mM CaCl2, pH 7.6, and stained with 0.5% Comassie Blue and destained with 50% methanol.

[3] = test system: VEGF-A; assay: VEGF-A ELISA in KM12L4a tumor lysates; type: in vivo, mouse; details: 100 mg/kg for 7 days; KM12L4a tumors in Nu/nu mice; listed as 4-amino-5-fluoro-3-[6-(4-methylpiperazin-1-yl)-1H-benzimidazol-2-yl]quinolin-2(1)
From the text: […]. Tumor cells (2×10^6 KM12L4a) were implanted subcutaneous into the flank of mice and allowed to grow to the desired size before treatment was initiated. […] The tumors were resected and flash frozen in liquid nitrogen.
VEGF-A protein levels in KM12L4a tumor lysates were quantified using a commercially available ELISA kit (R and D Systems, Minneapolis, Minn.) according to the manufacturer's procedures.

[4] = test system: KM12L4a human colon tumors; assay: Antibody immunohistochemistry staining of KM12L4a human colon tumors (Ki67, PARP, caspase-3, CD31); type: in vivo, mouse; details: 100 mg/kg for 7 days
[5] = test system: ICAM; assay: Western blot analysis of HUVECs, ICAM; details: 100 nM, lysates at 0, 16 and 24 hours
[6] = test system: VCAM; assay: Western blot analysis of HUVECs, VCAM; details: 100 nM, lysates at 0, 16 and 24 hours
[7] = test system: α5 integrin; assay: Western blot analysis of HUVECs, α5 integrin; details: 100 nM, lysates at 0, 16 and 24 hours
[8] = test system: αv integrin; assay: Western blot analysis of HUVECs, αv integrin; details: 100 nM; lysates at 0, 16 and 24 hours
[9] = test system: soluble ICAM; assay: Soluble ICAM ELISA in serum of 4T1 tumor bearing mice; details: 4T1 breast tumors
[10] = test system: soluble VCAM; assay: Soluble VCAM ELISA in serum of 4T1 tumor bearing mice; details: 4T1 breast tumors
[11] = 10 mpk orally, daily for 18 days
[12] = 30 mpk orally, daily for 18 days
[13] = 60 mpk orally, daily for 18 days
[14] = 100 mpk orally, daily for 18 days
[15] = 150 mpk orally, daily for 18 days
[16] = orally, daily, after 18 days of dosing, BALB/C mice
[17] = listed as 4-amino-5-fluoro-3-[6-(4-methylpiperazin-1-yl)-1H-benzimidazol-2-yl]quinolin-2(1)
[18] = 100 or 150 mg/kg orally, daily for 18 days
[19] = varying amounts (10-150 mg/kg), 18 days

CN1CCN(c2ccc3nc(-c4c(N)c5c(F)cccc5[nH]c4=O)[nH]c3c2)CC1 [Compound 1]
growth of the subcutaneous tumor inhibited compared to control ([1]; 10-150 mg/kg orally, daily for 18 days, BALB/C mice): 40-80%
# of Liver Metastases Mean +/− SD [1, 11]: 22.0 +/− 32.3
Liver Metastases: Incidence of Metastases [1, 11]: 7/8
# of Liver Metastases Mean +/− SD [1, 12]: 3.1 +/− 3.5
Liver Metastases: Incidence of Metastases [1, 12]: 6/10
# of Liver Metastases Mean +/− SD [1, 13]: 0.7 +/− 0.9
Liver Metastases: Incidence of Metastases [1, 13]: 5/10
# of Liver Metastases Mean +/− SD [1, 14]: 4.1 +/− 13.0
Liver Metastases: Incidence of Metastases [1, 14]: 1/10
# of Liver Metastases Mean +/− SD [1, 15]: 0.0 +/− 0.0
Liver Metastases: Incidence of Metastases [1, 15]: 0/9
liver metastases inhibition [1, 16]: completely inhibited
lung metastases inhibited [1, 16]: 60-97%
MMP-9 activity in tumors (zymography) [2]: decreased MMP-9 activity; also recorded: decrease
VEGF production in tumors (ELISA) [3]: reduced VEGF production; also recorded: decrease
apoptosis (PARP cleavage and caspase-3) [4]: induced apoptosis
tumor cell proliferation (Ki67) [4]: decreased tumor cell proliferation
vascular density (CD31) [4]: reduced vascular density
expression of ICAM in HUVECs [5]: decreased
expression of ICAM in HUVECs [5, 17]: decrease
expression of VCAM in HUVECs [6]: decreased
expression of VCAM in HUVECs [6, 17]: decrease
expression of α5 integrin in HUVECs [7]: decreased
expression of α5 integrin in HUVECs [7, 17]: decrease
expression of αv integrin in HUVECs [8]: not αν integrin
inhibition of soluble ICAM in serum [9, 18]: greater than 70%
soluble ICAM in serum, effect in words [9, 19]: dose-dependent reduction
inhibition of soluble VCAM in serum [10, 18]: 44-47%
soluble VCAM in serum, effect in words [10, 19]: dose-dependent reduction
